Laboratory results taken from patent US20100041897A1, “Process for preparing a crystalline form of candesartan cilexetil” (CHEMO IBERICA, S.A., priority 2006, published 2010).
Entries after “also recorded” stand apart in the source; their conditions may differ.

Key:
[1] = Accelerated stability test at 80° C., impurities determined by HPLC; assay type: physicochemical; conditions: product of crystallization assay from acetone/water 3:1 v/v, 80° C. for 5 to 9 days
[2] = as above; assay type: physicochemical; conditions: for stability in accelerated stability test (in words): 80° C.
Method: In order to determine the influence of Form II on the stability of candesartan cilexetil Form I, samples with different proportions of Form II were prepared and subjected to an accelerated stability test at a temperature of 80° C. for different periods of time up to 9 days. Once the time period elapsed, the samples were analyzed by HPLC for the determination of the content of impurities, according to the method described in the Examples. Samples of candesartan cilexetil Form I containing different proportions of Form II were prepared from the products obtained in Example 2 and Preparative Example 1. The samples were exposed to an accelerated stability test at a temperature of 80° C. for different time periods up to 9 days. Once the time period has elapsed, the samples were analyzed by HPLC for the determination of the content of impurities. Impurities corresponding to the following retention times: 8.3, 10.4, 12.5, 14.1 and 16.4 minutes were identified in the HPLC chromatograms. The HPLC analysis of impurities was carried out in a HPLC system with UV detector (Waters Alliance), with a L1-type column according to US Pharmacopeia nomenclature, at a temperature of 30° C., with a flow rate of 1 ml/min, an injection volume of 10 μl, and an UV detector at 210 nm. The mobile phase was constituted by a mixture of solution A (v/v) (aqueous 0.1% v/v trifluoroacetic acid buffer) and acetonitrile. During the analysis the mobile phase contained 45% of Solution A and 55% of acetonitrile, except for the period comprised from minute 15 to minute 25 wherein a mixture of 5% Solution A and 95% acetonitrile was used. The sample was prepared dissolving 0.2 mg of the sample in 1 ml of mobile phase. The sum of the impurities refers to the sum of areas recorded in the HPLC chromatogram corresponding to the degradation impurities detected at the retention times above specified.

[3] = solid sample kept at 80° C. for 7 days
[4] = solid sample kept at 80° C. for 9 days

CCOc1nc2cccc(C(=O)OC(C)OC(=O)OC3CCCCC3)c2n1Cc1ccc(-c2ccccc2-c2nnn[nH]2)cc1 (centres unmarked) [Assay 3, candesartan cilexetil]
Stability ([1]; listed as 3): Poor

CCOc1nc2cccc(C(=O)OC(C)OC(=O)OC3CCCCC3)c2n1Cc1ccc(-c2ccccc2-c2nnn[nH]2)cc1 (centres unmarked) [Assay 4, candesartan cilexetil]
Stability ([1]; listed as 4): Good

CCOc1nc2cccc(C(=O)OC(C)OC(=O)OC3CCCCC3)c2n1Cc1ccc(-c2ccccc2-c2nnn[nH]2)cc1 (centres unmarked) [Comparative Example 2, candesartan cilexetil]
stability in accelerated stability test (in words) [2]: deficient stability

CCOc1nc2cccc(C(=O)OC(C)OC(=O)OC3CCCCC3)c2n1Cc1ccc(-c2ccccc2-c2nnn[nH]2)cc1 (centres unmarked) [Example 1, candesartan cilexetil]
Stability [1]: Poor

CCOc1nc2cccc(C(=O)OC(C)OC(=O)OC3CCCCC3)c2n1Cc1ccc(-c2ccccc2-c2nnn[nH]2)cc1 (centres unmarked) [Form I (Example 2), 2-ethoxy-1-[[2′-(1H-tetrazol-5-yl)[1,1′-biphenyl]-4-yl]methyl]-1H-benzimidazole-7-carboxylic acid, 1-[[(cyclohexyloxy)carbonyl]oxy]ethyl ester]
stability in accelerated stability test (in words) ([2]; listed as candesartan cilexetil Form I): good stability; also recorded: high stability
Sum of impurities (% HPLC area) [2, 3]: 0.34 % HPLC area

CCOc1nc2cccc(C(=O)OC(C)OC(=O)OC3CCCCC3)c2n1Cc1ccc(-c2ccccc2-c2nnn[nH]2)cc1 (centres unmarked) [Form I + 0.1% of Form II, candesartan cilexetil]
Sum of impurities (% HPLC area) [2, 4]: 0.96 % HPLC area

CCOc1nc2cccc(C(=O)OC(C)OC(=O)OC3CCCCC3)c2n1Cc1ccc(-c2ccccc2-c2nnn[nH]2)cc1 (centres unmarked) [Form I + 0.3% of Form II, candesartan cilexetil]
Sum of impurities (% HPLC area) [2, 4]: 1.21 % HPLC area

CCOc1nc2cccc(C(=O)OC(C)OC(=O)OC3CCCCC3)c2n1Cc1ccc(-c2ccccc2-c2nnn[nH]2)cc1 (centres unmarked) [Form I + 0.5% of Form II, candesartan cilexetil]
Sum of impurities (% HPLC area) [2, 3]: 1.46 % HPLC area

CCOc1nc2cccc(C(=O)OC(C)OC(=O)OC3CCCCC3)c2n1Cc1ccc(-c2ccccc2-c2nnn[nH]2)cc1 (centres unmarked) [Form I + 1.0% of Form II, candesartan cilexetil]
Sum of impurities (% HPLC area) [2, 3]: 2.00 % HPLC area

CCOc1nc2cccc(C(=O)OC(C)OC(=O)OC3CCCCC3)c2n1Cc1ccc(-c2ccccc2-c2nnn[nH]2)cc1 (centres unmarked) [Form I + 2.0% of Form II, candesartan cilexetil]
Sum of impurities (% HPLC area) [2, 3]: 2.88 % HPLC area

CCOc1nc2cccc(C(=O)OC(C)OC(=O)OC3CCCCC3)c2n1Cc1ccc(-c2ccccc2-c2nnn[nH]2)cc1 (centres unmarked) [Form I + 5.0% of Form II, candesartan cilexetil]
Sum of impurities (% HPLC area) [2, 3]: 6.65 % HPLC area

CCOc1nc2cccc(C(=O)OC(C)OC(=O)OC3CCCCC3)c2n1Cc1ccc(-c2ccccc2-c2nnn[nH]2)cc1 (centres unmarked) [Form I + 10.0% of Form II, candesartan cilexetil]
Sum of impurities (% HPLC area) [2, 3]: 12.78 % HPLC area

CCOc1nc2cccc(C(=O)OC(C)OC(=O)OC3CCCCC3)c2n1Cc1ccc(-c2ccccc2-c2nnn[nH]2)cc1 (centres unmarked) [Form I + 20.0% of Form II, candesartan cilexetil]
Sum of impurities (% HPLC area) [2, 3]: 23.20 % HPLC area

CCOc1nc2cccc(C(=O)OC(C)OC(=O)OC3CCCCC3)c2n1Cc1ccc(-c2ccccc2-c2nnn[nH]2)cc1 (centres unmarked) [Form II (Preparative Example 1), 2-ethoxy-1-[[2′-(1H-tetrazol-5-yl)[1,1′-biphenyl]-4-yl]methyl]-1H-benzimidazole-7-carboxylic acid, 1-[[(cyclohexyloxy)carbonyl]oxy]ethyl ester, reference compound]
content of impurities ([2]; 80° C. for 5 days, calculated from the areas of the HPLC chromatogram): 60 % (w/w)
stability in accelerated stability test (in words) ([2]; listed as Form II): unstable; also recorded: high instability
Sum of impurities (% HPLC area) ([2]; solid sample kept at 80° C. for 5 days): 59.98 % HPLC area
